Data published in patent publication US10004701B2, “Methods and compositions for treating infection” (UNIVERSITY OF ROCHESTER, priority 2012, dated 2018).
Counter-ions that a name gives are not always drawn. Like-named read-outs stand apart in the source and are kept apart here.

Assays:
Test in all cases: AK assay 384-well format, Prestwick library screening
E. faecium = format: cell-based, Enterococcus faecium; details: Enterococcus faecium, 3 h, 50 μM final drug concentration
[1] = test system: S. aureus strain USA300-0114; format: cell-based, Staphylococcus aureus; details: Staphylococcus aureus, USA300, 3 h, 50 μM final drug concentration
K. pneumoniae = format: cell-based, Klebsiella pneumoniae; details: Klebsiella pneumoniae, 3 h, 50 μM final drug concentration
[2] = test system: A. baumannii strain 98-37-09; format: cell-based, Acinetobacter baumannii; details: Acinetobacter baumannii, 983709, 3 h, 50 μM final drug concentration
P. aeruginosa = format: cell-based, Pseudomonas aeruginosa; details: Pseudomonas aeruginosa, 3 h, 50 μM final drug concentration
E. cloacae = format: cell-based, Enterobacter cloacae; details: Enterobacter cloacae, 3 h, 50 μM final drug concentration
E. coli = format: cell-based, Escherichia coli; details: Escherichia coli, 3 h, 50 μM final drug concentration
[3] = planktonic E. faecium, positive cutoff 3-fold increase, read-out: AK-based Prestwick library screening result, E. faecium (fold increase in extracellular AK activity)
[4] = planktonic S. aureus, positive cutoff 3-fold increase, read-out: AK-based Prestwick library screening result, S. aureus (fold increase in extracellular AK activity)
[5] = planktonic K. pneumoniae, positive cutoff 3-fold increase, read-out: AK-based Prestwick library screening result, K. pneumoniae (fold increase in extracellular AK activity)
[6] = planktonic A. baumannii, positive cutoff 3-fold increase, read-out: AK-based Prestwick library screening result, A. baumannii (fold increase in extracellular AK activity)
[7] = planktonic P. aeruginosa, positive cutoff 3-fold increase, read-out: AK-based Prestwick library screening result, P. aeruginosa (fold increase in extracellular AK activity)
[8] = planktonic E. cloacae, positive cutoff 3-fold increase, read-out: AK-based Prestwick library screening result, E. cloacae (fold increase in extracellular AK activity)
[9] = planktonic E. coli, positive cutoff 3-fold increase, read-out: AK-based Prestwick library screening result, E. coli (fold increase in extracellular AK activity)

Nc1ccc(S(=O)(=O)Nc2ccnn2-c2ccccc2)cc1 [Sulfaphenazole]
fold induction at 50 µM (E. faecium; 384-well format, cutoff for positive-scoring molecules 3-fold increase, read-out: AK-based Prestwick Library Screening Results, E. faecium (increase in extracellular AK activity)): 0.8 | fold induction at 50 µM ([1]; 384-well format, cutoff for positive-scoring molecules 3-fold increase, read-out: AK-based Prestwick Library Screening Results, S. aureus (increase in extracellular AK activity)): 0.8 | fold induction at 50 µM (K. pneumoniae; 384-well format, cutoff for positive-scoring molecules 3-fold increase, read-out: AK-based Prestwick Library Screening Results, K. pneumoniae (increase in extracellular AK activity)): 0.7 | fold induction at 50 µM ([2]; 384-well format, cutoff for positive-scoring molecules 3-fold increase, read-out: AK-based Prestwick Library Screening Results, A. baumannii (increase in extracellular AK activity)): 1.4 | fold induction at 50 µM (P. aeruginosa; 384-well format, cutoff for positive-scoring molecules 3-fold increase, read-out: AK-based Prestwick Library Screening Results, P. aeruginosa (increase in extracellular AK activity)): 0.8 | fold induction at 50 µM (E. cloacae; 384-well format, cutoff for positive-scoring molecules 3-fold increase, read-out: AK-based Prestwick Library Screening Results, E. cloacae (increase in extracellular AK activity)): 0.8 | fold induction at 50 µM (E. coli; 384-well format, cutoff for positive-scoring molecules 3-fold increase, read-out: AK-based Prestwick Library Screening Results, E. coli (increase in extracellular AK activity)): 0.8

COc1cnc(NS(=O)(=O)c2ccc(N)cc2)nc1 [Sulfameter]
fold induction at 50 µM (E. faecium; planktonic, […], read-out: AK-based Prestwick Library Screening Results, E. faecium (fold increase in extracellular AK activity)): 1 | fold induction at 50 µM ([1]; planktonic, […], read-out: AK-based Prestwick Library Screening Results, S. aureus (fold increase in extracellular AK activity)): 1.2 | fold induction at 50 µM (K. pneumoniae; planktonic, […], read-out: AK-based Prestwick Library Screening Results, K. pneumoniae (fold increase in extracellular AK activity)): 1 | fold induction at 50 µM ([2]; planktonic, […], read-out: AK-based Prestwick Library Screening Results, A. baumannii (fold increase in extracellular AK activity)): 2.3 | fold induction at 50 µM (P. aeruginosa; planktonic, […], read-out: AK-based Prestwick Library Screening Results, P. aeruginosa (fold increase in extracellular AK activity)): 1.1 | fold induction at 50 µM (E. cloacae; planktonic, […], read-out: AK-based Prestwick Library Screening Results, E. cloacae (fold increase in extracellular AK activity)): 1.2 | fold induction at 50 µM (E. coli; planktonic, […], read-out: AK-based Prestwick Library Screening Results, E. coli (fold increase in extracellular AK activity)): 1.3

CCC1(c2cccc(O)c2)CCCCN(C)C1 (centres unmarked) [Meptazinol hydrochloride]
fold induction at 50 µM (E. faecium; planktonic E. faecium, […], read-out: AK-based Prestwick library screening result, E. faecium (fold increase in extracellular AK activity)): 1.1 | fold induction at 50 µM ([1]; planktonic S. aureus, […], read-out: AK-based Prestwick library screening result, S. aureus (fold increase in extracellular AK activity)): 0.9 | fold induction at 50 µM (K. pneumoniae; planktonic K. pneumoniae, […], read-out: AK-based Prestwick library screening result, K. pneumoniae (fold increase in extracellular AK activity)): 0.9 | fold induction at 50 µM ([2]; planktonic A. baumannii, […], read-out: AK-based Prestwick library screening result, A. baumannii (fold increase in extracellular AK activity)): 1.1 | fold induction at 50 µM (P. aeruginosa; planktonic P. aeruginosa, […], read-out: AK-based Prestwick library screening result, P. aeruginosa (fold increase in extracellular AK activity)): 1.1 | fold induction at 50 µM (E. cloacae; planktonic E. cloacae, […], read-out: AK-based Prestwick library screening result, E. cloacae (fold increase in extracellular AK activity)): 1.4 | fold induction at 50 µM (E. coli; planktonic E. coli, […], read-out: AK-based Prestwick library screening result, E. coli (fold increase in extracellular AK activity)): 1.3

C[C@@H]1C[C@@H]([C@H](O)CC2CC(=O)NC(=O)C2)C(=O)[C@@H](C)C1 [Cycloheximide]
fold induction at 50 µM (E. faecium; […], read-out: AK-based Prestwick Library Screening Results, E. faecium (fold increase in extracellular AK activity)): 1 | fold induction at 50 µM ([1]; […], read-out: AK-based Prestwick Library Screening Results, S. aureus (fold increase in extracellular AK activity)): 1.1 | fold induction at 50 µM (K. pneumoniae; […], read-out: AK-based Prestwick Library Screening Results, K. pneumoniae (fold increase in extracellular AK activity)): 1 | fold induction at 50 µM ([2]; […], read-out: AK-based Prestwick Library Screening Results, A. baumannii (fold increase in extracellular AK activity)): 1.2 | fold induction at 50 µM (P. aeruginosa; […], read-out: AK-based Prestwick Library Screening Results, P. aeruginosa (fold increase in extracellular AK activity)): 1.1 | fold induction at 50 µM (E. cloacae; […], read-out: AK-based Prestwick Library Screening Results, E. cloacae (fold increase in extracellular AK activity)): 0.9 | fold induction at 50 µM (E. coli; […], read-out: AK-based Prestwick Library Screening Results, E. coli (fold increase in extracellular AK activity)): 1.3

Cc1cc2c(cc1S(N)(=O)=O)S(=O)(=O)CCC2 [Meticrane]
fold induction at 50 µM (E. faecium; 384-well format, […], read-out: AK-based Prestwick Library Screening Results, E. faecium (increase in extracellular AK activity)): 0.9 | fold induction at 50 µM ([1]; 384-well format, […], read-out: AK-based Prestwick Library Screening Results, S. aureus (increase in extracellular AK activity)): 0.8 | fold induction at 50 µM (K. pneumoniae; 384-well format, […], read-out: AK-based Prestwick Library Screening Results, K. pneumoniae (increase in extracellular AK activity)): 0.5 | fold induction at 50 µM ([2]; 384-well format, […], read-out: AK-based Prestwick Library Screening Results, A. baumannii (increase in extracellular AK activity)): 0.8 | fold induction at 50 µM (P. aeruginosa; 384-well format, […], read-out: AK-based Prestwick Library Screening Results, P. aeruginosa (increase in extracellular AK activity)): 0.6 | fold induction at 50 µM (E. cloacae; 384-well format, […], read-out: AK-based Prestwick Library Screening Results, E. cloacae (increase in extracellular AK activity)): 0.7 | fold induction at 50 µM (E. coli; 384-well format, […], read-out: AK-based Prestwick Library Screening Results, E. coli (increase in extracellular AK activity)): 0.6

CCC[C@H](N[C@@H](C)C(=O)N1[C@H](C(=O)O)C[C@@H]2CCCC[C@@H]21)C(=O)OCC [Perindopril]
fold induction at 50 µM (E. faecium; [3]): 1 | fold induction at 50 µM [1, 4]: 1.1 | fold induction at 50 µM (K. pneumoniae; [5]): 1.1 | fold induction at 50 µM [2, 6]: 1.4 | fold induction at 50 µM (P. aeruginosa; [7]): 1.2 | fold induction at 50 µM (E. cloacae; [8]): 1.3 | fold induction at 50 µM (E. coli; [9]): 1.2

CCc1c(C)[nH]c2c1C(=O)C(CN1CCOCC1)CC2 (centres unmarked) [Molindone hydrochloride]
fold induction at 50 µM (E. faecium; [3]): 1 | fold induction at 50 µM [1, 4]: 1.1 | fold induction at 50 µM (K. pneumoniae; [5]): 1 | fold induction at 50 µM [2, 6]: 1.1 | fold induction at 50 µM (P. aeruginosa; [7]): 0.9 | fold induction at 50 µM (E. cloacae; [8]): 1.7 | fold induction at 50 µM (E. coli; [9]): 1.1

CNCCCC12CCC(c3ccccc31)c1ccccc12 [Maprotiline hydrochloride]
fold induction at 50 µM (E. faecium; planktonic E. faecium, cutoff for positive-scoring molecules 3-fold increase, read-out: AK-based Prestwick Library Screening Results, E. faecium (increase in extracellular AK activity)): 0.8 | fold induction at 50 µM ([1]; planktonic S. aureus, cutoff for positive-scoring molecules 3-fold increase, read-out: AK-based Prestwick Library Screening Results, S. aureus (increase in extracellular AK activity)): 1.1 | fold induction at 50 µM (K. pneumoniae; planktonic K. pneumoniae, cutoff for positive-scoring molecules 3-fold increase, read-out: AK-based Prestwick Library Screening Results, K. pneumoniae (increase in extracellular AK activity)): 0.6 | fold induction at 50 µM ([2]; planktonic A. baumannii, cutoff for positive-scoring molecules 3-fold increase, read-out: AK-based Prestwick Library Screening Results, A. baumannii (increase in extracellular AK activity)): 0.8 | fold induction at 50 µM (P. aeruginosa; planktonic P. aeruginosa, cutoff for positive-scoring molecules 3-fold increase, read-out: AK-based Prestwick Library Screening Results, P. aeruginosa (increase in extracellular AK activity)): 0.9 | fold induction at 50 µM (E. cloacae; planktonic E. cloacae, cutoff for positive-scoring molecules 3-fold increase, read-out: AK-based Prestwick Library Screening Results, E. cloacae (increase in extracellular AK activity)): 0.9 | fold induction at 50 µM (E. coli; planktonic E. coli, cutoff for positive-scoring molecules 3-fold increase, read-out: AK-based Prestwick Library Screening Results, E. coli (increase in extracellular AK activity)): 0.8
